The values below come from US9402856B2, “Pharmaceutical composition for preventing or treating diabetes containing TENC1 expression or activity suppressor” (POSTECH ACADEMY-INDUSTRY FOUNDATION, priority 2012, dated 2016).

Molecules are shown by their SMILES. Residues, ends and D or L forms follow the SMILES beside them. *: point of attachment. Cbz = O=C(OCc1ccccc1)* Some results are limits rather than exact numbers.

Assay [1] concerns the target T1, TENC1 (Homo sapiens, UniProt Q63HR2, P1246L).
T1 sequence (Q63HR2 1-1409 P1246L): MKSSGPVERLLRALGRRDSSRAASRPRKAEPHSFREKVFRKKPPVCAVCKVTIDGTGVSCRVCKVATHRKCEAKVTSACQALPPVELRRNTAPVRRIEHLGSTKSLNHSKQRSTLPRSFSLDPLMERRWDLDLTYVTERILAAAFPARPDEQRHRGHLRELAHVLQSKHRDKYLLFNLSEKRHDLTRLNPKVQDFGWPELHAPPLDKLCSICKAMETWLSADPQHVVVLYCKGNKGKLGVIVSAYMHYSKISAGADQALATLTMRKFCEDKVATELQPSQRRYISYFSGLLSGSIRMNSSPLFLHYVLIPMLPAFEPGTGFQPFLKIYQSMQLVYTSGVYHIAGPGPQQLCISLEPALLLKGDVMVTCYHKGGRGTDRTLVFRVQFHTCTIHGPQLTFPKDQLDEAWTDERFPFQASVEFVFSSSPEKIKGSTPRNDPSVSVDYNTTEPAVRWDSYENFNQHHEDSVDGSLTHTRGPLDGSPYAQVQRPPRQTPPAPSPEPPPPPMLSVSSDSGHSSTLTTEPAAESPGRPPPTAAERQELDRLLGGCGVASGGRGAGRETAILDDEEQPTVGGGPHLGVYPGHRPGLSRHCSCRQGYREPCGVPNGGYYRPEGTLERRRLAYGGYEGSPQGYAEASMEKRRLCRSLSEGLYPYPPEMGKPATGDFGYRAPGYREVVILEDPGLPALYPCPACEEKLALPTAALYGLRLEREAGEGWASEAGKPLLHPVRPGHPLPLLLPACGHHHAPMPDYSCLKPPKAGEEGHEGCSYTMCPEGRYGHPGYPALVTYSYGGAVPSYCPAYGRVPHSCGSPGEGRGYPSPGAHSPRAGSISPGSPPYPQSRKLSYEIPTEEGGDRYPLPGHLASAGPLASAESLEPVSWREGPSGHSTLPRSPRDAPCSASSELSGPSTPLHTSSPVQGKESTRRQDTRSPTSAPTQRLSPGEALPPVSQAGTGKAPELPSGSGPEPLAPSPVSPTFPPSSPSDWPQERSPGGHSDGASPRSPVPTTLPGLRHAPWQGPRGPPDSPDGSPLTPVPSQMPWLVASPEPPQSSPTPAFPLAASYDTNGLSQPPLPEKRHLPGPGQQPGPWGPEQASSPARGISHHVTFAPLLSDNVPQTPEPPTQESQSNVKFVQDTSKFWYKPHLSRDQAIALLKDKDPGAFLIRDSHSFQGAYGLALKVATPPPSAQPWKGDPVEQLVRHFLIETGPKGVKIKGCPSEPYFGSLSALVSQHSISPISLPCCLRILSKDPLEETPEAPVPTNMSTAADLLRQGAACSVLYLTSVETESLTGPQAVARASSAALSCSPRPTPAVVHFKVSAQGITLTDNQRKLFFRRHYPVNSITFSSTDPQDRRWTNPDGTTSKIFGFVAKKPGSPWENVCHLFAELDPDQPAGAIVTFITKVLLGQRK
Kind of assay: degradation of IRS-1 protein in myotube overexpressing TENC1, Western blotting. It is filed as cell-based. Set-up: expressed in transfected cells; host or cells: L6 myotube (adenoviral overexpression). How it is done: In order to know a physiological function of TENC1, TENC1 was overexpressed in L6 myotube (muscle cell) that plays a main role in IRS-1, using an adenovirus. Using the same method as in Example 1, the quantitative PCR was performed and it was confirmed that TENC1 mRNA was increased eightfold to tenfold in the myotube. Then, using the same method as in Example 2, phosphorylation of proteins associated with IRS-1 was determined.
Accordingly, in order to determine the reason for the decrease of IRS-1, it was determined whether TENC1 influences a ubiquitin proteasome pathway or serine phosphorylation of IRS-1 by Western blotting. In order to determine whether TENC1 influences a protein-degrading mechanism, MG132, which is an inhibitor of a protein-degrading enzyme (proteasome), was treated.
In order to determine whether the PTPase activity of TENC1 influences degradation of IRS-1, vanadate was treated to determine whether degradation of IRS-1 is suppressed by Western blotting.

For assay [2], the target named is T1, TENC1. The assay can be described thus: PTPase activity of separated TENC1, malachite green assay. The class given is biochemical. Set-up: expressed in transfected cells. As to conditions: separated TENC1 proteins, FIG. 16A. How it is done: In addition, in order to measure the PTPase activity of TENC1, first, TENC1 was separated from HEK293 cell lines using a Flag immunoprecipitation/Flag peptide elution system. Then, the PTPase activity of the separated TENC1 was measured over time, using peptides having phosphotyrosine. The PTPase activity was analyzed by a malachite green assay method. As a control group, PTEN (a phosphatase and tensin homolog) or the TENC1 CS variant was used.
As a result, it was confirmed that the PTPase activity of TENC1 was inhibited by 60% or more (FIG. 16A).

For a further assay, the target named is T2, PTPase domain of TENC1 (Homo sapiens, UniProt Q63HR2, P1246L).
T2 construct: expressed in transfected cells
T2 sequence (Q63HR2 1-1409 P1246L): T1 sequence (Q63HR2 1-1409 P1246L)
The assay can be described thus: binding of TENC1 and IRS-1, immunoprecipitation using IRS-1. The settings on record: FIG. 5. How it is done:
In order to determine a mechanism of TENC1 that suppresses phosphorylation of IRS-1, immunoprecipitation was performed using IRS-1. In a control experiment, vanadate, which is an analogue of phosphotyrosine and binds to a PTPase domain to inhibit the PTPase activity, was used.

Consider `CC(C)C[C@@H](C=O)NC(=O)[C@H](CC(C)C)NC(=O)[C@H](CC(C)C)NC(=O)OCc1ccccc1` [MG132] (Cbz-Leu-Leu-Leu-aldehyde), for which the “amount of IRS-1” value on TENC1 [1] (with and without insulin, TENC1 overexpressed, FIG. 9) is reported as “the decreased amount of IRS-1 was restored”.

In the case of `C[C@H]1[C@H](C)CC[C@]2(C(=O)O)CC[C@]3(C)C(=CC[C@@H]4[C@@]5(C)CC[C@H](O)C(C)(C)[C@@H]5CC[C@]43C)[C@H]12` [ursolic acid], the inhibition at 20 µM on TENC1 [2] is at least 60%. The “degree of degradation of IRS-1 protein” value on TENC1 [1] (myotube overexpressing TENC1, increasing concentration, FIG. 16C) is “IRS-1 is restored to a level similar to a control group”.

For the compound `[O]=[V]([O-])([O-])[O-]` [vanadate], the “binding of TENC1 WT with IRS-1” value at PTPase domain of TENC1 is “binding with IRS-1 decreased”. Also, the “degradation of IRS-1” value on TENC1 [1] (vanadate treated, Western blotting, FIG. 10) is recorded as “degradation of IRS-1 was suppressed”.

As usually defined, the inhibition is the change of the read-out against control, counted positive when it falls. Lower therefore signals little suppression.
